Assay results reported in publication PMC7366380, “Discovery of a Potent and Selective Covalent Inhibitor and Activity-Based Probe for the Deubiquitylating Enzyme UCHL1, with Antifibrotic Activity” (Journal of the American Chemical Society, 2020).
Where “and” joins values, the source holds several entries; their conditions need not be identical. Equal values may be shown once.

What was measured:
Test in all cases: In-cell proteome-wide competitive ABPP, HEK293: other DUBs and proteins
[1] = target: DUBs and other proteins in HEK293 cells (Homo sapiens, UniProt O00487); details: replicates A-C; for Log2 reporter intensity values: PSMD14: competition with ABP 2, DMSO substract (FC); for Log2 reporter intensity values: PSMD14, DMSO subtracted
[2] = target: T1, DUBs and other proteins in HEK293 cells (Homo sapiens, UniProt Q9Y5K5); details: replicates A-C; for Log2 reporter intensity values: UCHL5: competition with ABP 2, DMSO substract (FC); for Log2 reporter intensity values: UCHL5, DMSO subtracted
T1 sequence (Q9Y5K5 1-329): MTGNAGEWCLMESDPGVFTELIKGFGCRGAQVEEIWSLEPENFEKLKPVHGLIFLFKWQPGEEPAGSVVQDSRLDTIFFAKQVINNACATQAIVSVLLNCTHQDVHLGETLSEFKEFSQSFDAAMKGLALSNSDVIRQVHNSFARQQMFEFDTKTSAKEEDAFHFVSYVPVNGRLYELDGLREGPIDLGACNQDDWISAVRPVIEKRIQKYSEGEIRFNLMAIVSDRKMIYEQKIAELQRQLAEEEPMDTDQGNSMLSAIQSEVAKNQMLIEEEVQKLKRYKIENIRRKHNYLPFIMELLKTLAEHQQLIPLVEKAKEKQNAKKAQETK

[3] = target: T2, DUBs and other proteins in HEK293 cells (Homo sapiens, UniProt Q9Y4E8); details: replicates A-C; for Log2 reporter intensity values: USP15: competition with ABP 2, DMSO substract (FC); for Log2 reporter intensity values: USP15, DMSO subtracted
T2 sequence (Q9Y4E8 1-981): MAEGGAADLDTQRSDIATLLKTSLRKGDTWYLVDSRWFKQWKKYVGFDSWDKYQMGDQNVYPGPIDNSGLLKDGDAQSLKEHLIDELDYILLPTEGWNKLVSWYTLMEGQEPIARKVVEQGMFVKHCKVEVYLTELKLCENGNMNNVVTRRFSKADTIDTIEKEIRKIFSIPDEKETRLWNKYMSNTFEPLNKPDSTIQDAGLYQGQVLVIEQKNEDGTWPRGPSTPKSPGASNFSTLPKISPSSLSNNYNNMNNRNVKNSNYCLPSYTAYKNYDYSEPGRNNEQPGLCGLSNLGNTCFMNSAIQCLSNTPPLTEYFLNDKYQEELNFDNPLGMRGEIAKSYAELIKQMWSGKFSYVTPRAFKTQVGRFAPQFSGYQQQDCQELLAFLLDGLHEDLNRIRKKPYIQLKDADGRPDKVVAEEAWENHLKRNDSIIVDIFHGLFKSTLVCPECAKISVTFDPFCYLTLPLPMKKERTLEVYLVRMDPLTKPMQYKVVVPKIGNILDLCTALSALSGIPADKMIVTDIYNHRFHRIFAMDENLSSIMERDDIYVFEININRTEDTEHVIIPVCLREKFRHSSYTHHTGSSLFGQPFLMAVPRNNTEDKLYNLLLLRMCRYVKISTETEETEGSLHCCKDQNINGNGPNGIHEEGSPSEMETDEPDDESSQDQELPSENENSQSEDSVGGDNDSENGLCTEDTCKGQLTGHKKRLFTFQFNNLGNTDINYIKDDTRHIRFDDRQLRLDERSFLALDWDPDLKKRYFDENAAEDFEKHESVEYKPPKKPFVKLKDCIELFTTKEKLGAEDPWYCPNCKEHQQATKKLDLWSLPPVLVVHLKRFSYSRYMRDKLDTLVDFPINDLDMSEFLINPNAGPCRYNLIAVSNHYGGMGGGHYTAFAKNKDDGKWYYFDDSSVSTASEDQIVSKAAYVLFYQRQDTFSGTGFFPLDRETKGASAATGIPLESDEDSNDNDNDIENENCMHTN

[4] = target: DUBs and other proteins in HEK293 cells (Homo sapiens, UniProt Q7L5N1); details: for Log2 reporter intensity values, COPS6: TMT replicates; for Log2 reporter intensity values: COPS6: competition with ABP 2, DMSO substract (FC); for Log2 reporter intensity values: COPS6 / Log2 reporter intensity values: replicates A-C; for Log2 t-test Difference / Log2 reporter intensity values: COPS6
[5] = target: T3, DUBs and other proteins in HEK293 cells (Homo sapiens, UniProt P51665); details: replicates A-C; for Log2 reporter intensity values: PSMD7: competition with ABP 2, DMSO substract (FC); for Log2 reporter intensity values: PSMD7, DMSO subtracted
T3 sequence (P51665 1-324): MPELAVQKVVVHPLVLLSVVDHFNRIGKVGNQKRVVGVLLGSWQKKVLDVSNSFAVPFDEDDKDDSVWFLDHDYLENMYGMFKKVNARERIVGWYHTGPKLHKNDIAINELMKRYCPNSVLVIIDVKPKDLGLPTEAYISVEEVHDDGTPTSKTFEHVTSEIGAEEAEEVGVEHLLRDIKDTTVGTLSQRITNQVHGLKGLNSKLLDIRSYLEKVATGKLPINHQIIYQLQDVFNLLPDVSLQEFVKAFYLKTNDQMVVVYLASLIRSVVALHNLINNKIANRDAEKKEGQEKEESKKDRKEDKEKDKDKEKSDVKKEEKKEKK

[6] = target: DUBs and other proteins in HEK293 cells (Homo sapiens, UniProt Q6P2Q9); details: replicates A-C; for Log2 reporter intensity values: PRPF8: competition with ABP 2, DMSO substract (FC); for Log2 reporter intensity values: PRPF8, DMSO subtracted
[7] = target: DUBs and other proteins in HEK293 cells (Homo sapiens, UniProt Q96FW1); details: replicates A-C; for Log2 reporter intensity values: OTUB1: competition with ABP 2, DMSO substract (FC); for Log2 reporter intensity values: OTUB1, DMSO subtracted
[8] = target: DUBs and other proteins in HEK293 cells (Homo sapiens, UniProt Q14694); details: replicates A-C; for Log2 reporter intensity values: USP10: competition with ABP 2, DMSO substract (FC); for Log2 reporter intensity values: USP10, DMSO subtracted
Chain of DUBs and other proteins in HEK293 cells (Homo sapiens, UniProt Q14694) (Q14694 whole entry): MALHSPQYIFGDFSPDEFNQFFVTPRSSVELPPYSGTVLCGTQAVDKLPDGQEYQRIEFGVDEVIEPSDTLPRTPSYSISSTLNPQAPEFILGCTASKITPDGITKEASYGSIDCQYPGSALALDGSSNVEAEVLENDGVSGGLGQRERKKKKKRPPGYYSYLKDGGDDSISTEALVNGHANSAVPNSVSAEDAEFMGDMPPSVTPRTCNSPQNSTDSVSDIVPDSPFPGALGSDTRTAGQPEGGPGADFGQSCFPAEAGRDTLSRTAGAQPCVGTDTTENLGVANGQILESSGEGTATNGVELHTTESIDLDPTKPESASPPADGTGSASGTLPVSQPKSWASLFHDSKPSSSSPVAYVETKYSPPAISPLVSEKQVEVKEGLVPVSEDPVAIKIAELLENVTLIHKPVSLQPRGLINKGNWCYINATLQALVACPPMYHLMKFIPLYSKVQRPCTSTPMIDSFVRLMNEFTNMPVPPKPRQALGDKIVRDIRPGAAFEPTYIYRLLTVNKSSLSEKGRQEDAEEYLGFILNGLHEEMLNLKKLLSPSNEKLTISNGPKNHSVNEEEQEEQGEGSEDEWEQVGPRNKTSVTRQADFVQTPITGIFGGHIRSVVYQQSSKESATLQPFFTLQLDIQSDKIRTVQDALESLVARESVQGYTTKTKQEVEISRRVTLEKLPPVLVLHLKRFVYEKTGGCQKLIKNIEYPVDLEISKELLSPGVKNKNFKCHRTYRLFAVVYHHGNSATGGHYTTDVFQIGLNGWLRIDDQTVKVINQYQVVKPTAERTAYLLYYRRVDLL

Chain of DUBs and other proteins in HEK293 cells (Homo sapiens, UniProt O00487) (O00487 whole entry): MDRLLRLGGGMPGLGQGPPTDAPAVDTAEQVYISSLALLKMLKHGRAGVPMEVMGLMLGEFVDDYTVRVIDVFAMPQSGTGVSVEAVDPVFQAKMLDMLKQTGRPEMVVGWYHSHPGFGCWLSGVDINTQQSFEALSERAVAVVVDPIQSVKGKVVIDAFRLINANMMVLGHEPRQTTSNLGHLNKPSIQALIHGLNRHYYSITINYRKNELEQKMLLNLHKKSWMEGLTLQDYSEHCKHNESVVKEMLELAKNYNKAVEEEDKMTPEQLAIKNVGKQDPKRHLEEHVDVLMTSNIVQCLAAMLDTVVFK
Chain of DUBs and other proteins in HEK293 cells (Homo sapiens, UniProt Q7L5N1) (Q7L5N1 whole entry): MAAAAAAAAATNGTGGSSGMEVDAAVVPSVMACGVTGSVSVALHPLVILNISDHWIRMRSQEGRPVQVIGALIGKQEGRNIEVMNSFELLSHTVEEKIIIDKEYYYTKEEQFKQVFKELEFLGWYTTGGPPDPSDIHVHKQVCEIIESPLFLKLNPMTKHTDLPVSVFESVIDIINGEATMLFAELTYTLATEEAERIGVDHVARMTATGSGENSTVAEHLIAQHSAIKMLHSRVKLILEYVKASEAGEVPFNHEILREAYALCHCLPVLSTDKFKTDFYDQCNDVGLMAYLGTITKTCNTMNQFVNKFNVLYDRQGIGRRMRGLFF
Chain of DUBs and other proteins in HEK293 cells (Homo sapiens, UniProt Q96FW1) (Q96FW1 whole entry): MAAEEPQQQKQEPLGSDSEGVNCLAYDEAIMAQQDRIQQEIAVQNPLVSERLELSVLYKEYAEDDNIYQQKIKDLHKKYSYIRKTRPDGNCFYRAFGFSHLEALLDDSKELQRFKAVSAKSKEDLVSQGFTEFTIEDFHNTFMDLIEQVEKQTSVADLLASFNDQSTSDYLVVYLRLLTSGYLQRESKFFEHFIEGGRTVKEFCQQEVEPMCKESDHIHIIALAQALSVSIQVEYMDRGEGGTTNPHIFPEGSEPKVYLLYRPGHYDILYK

Structure (SMILES): N#CN1CCC[C@@H]1C(=O)N1CCc2c(-c3c[nH]c4ncccc34)cccc21 [Compound 3]
- Log2 reporter intensity values: PSMD14 ([1]; 3 at 1 μM): 1.063 and 1.033 and 1.055
- Log2 reporter intensity values: PSMD14 ([1]; 3 at 4 μM): 1.048 and 1.127 and 1.122
- Log2 reporter intensity values ([1]; 3_1 μM): 0.06036 and 0.03045 and 0.0523
- Log2 reporter intensity values ([1]; 3_4 μM): 0.04582 and 0.1244 and 0.1197
- Log2 reporter intensity values ([1]; 3 at 1 μM): 0.08818 and 0.04699 and 0.07719
- Log2 reporter intensity values ([1]; 3 at 4 μM): 0.06829 and 0.1725 and 0.1665
- Log2 reporter intensity values: UCHL5 ([2]; 3 at 1 μM): 1.151 and 1.125 and 1.14
- Log2 reporter intensity values: UCHL5 ([2]; 3 at 4 μM): 0.8761 and 0.9259 and 0.9496
- Log2 reporter intensity values ([2]; 3_1 μM): 0.1503 and 0.124 and 0.1395
- Log2 reporter intensity values ([2]; 3_4 μM): -0.1246 and -0.07482 and -0.05103
- Log2 reporter intensity values ([2]; 3 at 1 μM): 0.2029 and 0.1696 and 0.1893
- Log2 reporter intensity values ([2]; 3 at 4 μM): -0.1908 and -0.1111 and -0.07454
- Log2 reporter intensity values: USP15 ([3]; 3 at 1 μM): 1.093 and 1.008 and 1.068
- Log2 reporter intensity values: USP15 ([3]; 3 at 4 μM): 1.017 and 0.9783 and 1.019
- Log2 reporter intensity values ([3]; 3_1 μM): 0.09224 and 0.007674 and 0.06804
- Log2 reporter intensity values ([3]; 3_4 μM): 0.01634 and -0.02192 and 0.0187
- Log2 reporter intensity values ([3]; 3 at 1 μM): 0.1276 and 0.0114 and 0.09532
- Log2 reporter intensity values ([3]; 3 at 4 μM): 0.02376 and -0.03158 and 0.02709
- Log2 reporter intensity values, COPS6 ([4]; 1 μM 3 (60 min) + 20 nM ABP 2 (10 min), All values): 0.04099 and 0.07831 and 0.06581
- Log2 reporter intensity values, COPS6 ([4]; 1 μM 3 (60 min) + 20 nM ABP 2 (10 min), DMSO subtracted): 0.02857 and 0.06589 and 0.0534
- Log2 reporter intensity values, COPS6 ([4]; 4 μM 3 (60 min) + 20 nM ABP 2 (10 min), All values): -0.1551 and -0.06324 and -0.1331
- Log2 reporter intensity values, COPS6 ([4]; 4 μM 3 (60 min) + 20 nM ABP 2 (10 min), DMSO subtracted): -0.1675 and -0.07565 and -0.1455
- Log2 reporter intensity values: COPS6 ([4]; 3 at 1 μM): 1.02 and 1.047 and 1.038
- Log2 reporter intensity values: COPS6 ([4]; 3 at 4 μM): 0.8904 and 0.9489 and 0.9041
- Log2 t-test Difference ([4]; 3 - 1 μM): 0.00565
- Log2 t-test Difference ([4]; 3 - 4 μM): -0.1732
- Log2 reporter intensity values ([4]; 3_1 μM, DMSO subtracted): 0.01989 and 0.04662 and 0.0376
- Log2 reporter intensity values ([4]; 3_4 μM, DMSO subtracted): -0.1098 and -0.0512 and -0.09603
- Log2 reporter intensity values ([4]; 3 at 1 μM, DMSO subtracted): 0.02857 and 0.06589 and 0.0534
- Log2 reporter intensity values ([4]; 3 at 4 μM, DMSO subtracted): -0.1675 and -0.07565 and -0.1455
- Log2 reporter intensity values: PSMD7 ([5]; 3 at 1 μM): 1.2 and 1.081 and 1.198
- Log2 reporter intensity values: PSMD7 ([5]; 3 at 4 μM): 1.083 and 1.233 and 0.9957
- Log2 reporter intensity values ([5]; 3_1 μM): 0.1973 and 0.07834 and 0.1956
- Log2 reporter intensity values ([5]; 3_4 μM): 0.08024 and 0.2301 and -0.006858
- Log2 reporter intensity values ([5]; 3 at 1 μM): 0.2629 and 0.1122 and 0.2608
- Log2 reporter intensity values ([5]; 3 at 4 μM): 0.1148 and 0.3017 and -0.006207
- Log2 reporter intensity values: PRPF8 ([6]; 3 at 1 μM): 0.9503 and 0.8885 and 0.9546
- Log2 reporter intensity values: PRPF8 ([6]; 3 at 4 μM): 0.9411 and 0.9829 and 0.9624
- Log2 reporter intensity values ([6]; 3_1 μM): -0.0499 and -0.1118 and -0.04563
- Log2 reporter intensity values ([6]; 3_4 μM): -0.05909 and -0.0173 and -0.03782
- Log2 reporter intensity values ([6]; 3 at 1 μM): -0.07348 and -0.1706 and -0.06701
- Log2 reporter intensity values ([6]; 3 at 4 μM): -0.08751 and -0.02483 and -0.05526
- Log2 reporter intensity values: OTUB1 ([7]; 3 at 1 μM): 0.9728 and 1.005 and 0.986
- Log2 reporter intensity values: OTUB1 ([7]; 3 at 4 μM): 1.016 and 1.059 and 1.053
- Log2 reporter intensity values ([7]; 3_1 μM): -0.02736 and 0.004799 and -0.01417
- Log2 reporter intensity values ([7]; 3_4 μM): 0.01602 and 0.05888 and 0.05243
- Log2 reporter intensity values ([7]; 3 at 1 μM): -0.03984 and 0.007079 and -0.02041
- Log2 reporter intensity values ([7]; 3 at 4 μM): 0.0231 and 0.08271 and 0.07389
- Log2 reporter intensity values: USP10 ([8]; 3 at 1 μM): 0.9243 and 0.9306 and 0.9846
- Log2 reporter intensity values: USP10 ([8]; 3 at 4 μM): 0.9265 and 0.935 and 0.9597
- Log2 reporter intensity values ([8]; 3_1 μM): -0.07662 and -0.07034 and -0.01633
- Log2 reporter intensity values ([8]; 3_4 μM): -0.07444 and -0.066 and -0.04125
- Log2 reporter intensity values ([8]; 3 at 1 μM): -0.1135 and -0.1037 and -0.02233
- Log2 reporter intensity values ([8]; 3 at 4 μM): -0.1101 and -0.09701 and -0.05932
